Experiments:
platelets [1] = assay: Shear-induced platelet activation (PAS) with membrane modulators; type: cell-based, human
Method: Platelets were obtained as previously described and the effect of […] on biochemical or shear-induced (70 dyn shearing force) platelet activation was determined. Membrane modulation was effected using hydrophobic molecules such as Docosahexaenoic acid (DHA) and Eicosapentaenoic acid (EPA), the structures of which are shown below.
Shear-mediated platelet activation was also measured in the presence of DHA, EPA and wild salmon oil (FIG. 4B-C).
Shear-mediated and biochemical mediated platelet activation was also measured in the presence of the amphipathic molecules, cholesterol and lecithin. Cholesterol adds firmness and integrity to the plasma membrane and prevents it from becoming overly fluid i.e., cholesterol helps the membrane maintain its fluidity. In the studies including cholesterol, cholesterol-treated cells were compared with cells treated with 0.1% DMSO.

[2] = tested on: gel-filtered platelets (GFP); assay: Platelet activity state (PAS) assay of gel-filtered platelets under constant shear (cone-plate viscometer); type: cell-based, Human
Method: (§1) Human blood was collected from healthy volunteers in citrated buffers. Platelet rich plasma (PRP) and gel-filtered platelets (GFP) were isolated as previously described (Girdhar, et al., PLOS One, 7(3):e32463 (2012)) then treated with percentages of DMSO (v/v) ranging from 0.95%-60%. Platelet activity state (PAS) assay of GFP sheared at 30 dyne/cm^2 via con-plate viscometer and light transmission aggregometry (LTA) of PRP and GFP induced by ADP and collagen were performed.
In some experiments, varying percentages of DMSO were added to platelets, which were then subjected to defined sheer.

platelets [3] = assay: Hyper-shear exposure via platelet hammer device (PAS); type: cell-based, Human; settings: 0.95% (v/v) DMSO pre-incubation; shear 100-1000 dynes/cm^2; FIG. 1B
Method: To further extend the above observation, platelets were pre-incubated with DMSO, at 0.95% (v/v), and then subjected to much higher levels of shear via a platelet hammer device, i.e. shear from 100-1000 dynes/cm^2. […] These levels correlate with the levels experienced in VADs and other high shear MCS devices.

[4] = tested on: Platelet rich plasma (PRP); assay: Light transmission aggregometry (LTA) with chemical agonists; type: cell-based, Human
Method: as §1
(§2) Light transmission aggregometry (LTA) was performed to detect platelet desensitization using arachidonic acid, ADP, collagen, epinephrine, and ristocetin. Platelets were fixed and visualized at the varying DMSO treatments under scanning electron microscopy (SEM). […] DMSO has no effect on ristocetin-induced platelet aggregation.
To examine whether membrane modulation impacted biochemical as well as shear-mediated platelet activation the following study was performed. Platelet rich plasma (PRP) was pre-incubated with varying concentrations of DMSO. PRP was then exposed to a variety of chemical agonists (ADP, Col, EpPi, Arac. Acid, or none (control)).

platelets [5] = assay: Scanning electron microscopy (SEM) of fixed DMSO-treated platelets; type: cell-based, Human; settings: 5% and 10% DMSO
Method: as §2

GFP = assay: Shear-mediated platelet activation with actin stabilizing/depolymerization drugs; type: cell-based, human; settings: 70 dyn shearing force; compared to control cells with 0.1% DMSO; FIG. 2B
Method: Platelets were collected from human volunteers and PRP obtained as described above. Platelet-activation was determined (biochemical vs. shear mediated) was determined within the context of modulation of intracellular microfilament action, as measured by the effect on actin was determined. Actin is a globular multi-functional protein that forms microfilaments. It is found in almost all eukaryotic cells where it may be present at concentrations of over 100 μM. An actin protein's mass is roughly 42-kDa and it is the monomeric subunit of two types of filaments in cells: microfilaments, one of the three major components of the cytoskeleton, and thin filaments, part of the contractile apparatus in muscle cells. It can be present as either a free monomer called G-actin (globular) or as part of a linear polymer microfilament called F-actin (filamentous).
Whole blood aggregation was determined in the presence of ADP in cells treated with cytochalasin B (FIG. 2A). Cystochalasin B inhibits both the rate of actin polymerization and the interaction of actin filaments in solution. Maclean-Fletcher, Cell, 20(2):329-41 (1980). The effect of actin stabilizing/depolymerization drugs (Jasplakinolide and cystochalasin B) in shear-mediated platelet activation was measured in GFP. […]

Molecule: lecithin
- platelet sensitivity to shear stress (platelets [1]; Example 4 data): increase platelet sensitivity to shear stress
- shear-induced platelet activation as measured by PAS (platelets [1]; lecithin 25 ug/ml, 30 dyn, GFP, compared to controls, FIG. 4G): increases

Molecule: C[S+](C)[O-] [DMSO, dimethysulfoxide]
- protection of platelets from shear-induced activation in comparison to control (PAS assay) ([2]; 5% DMSO, 5 min of 30 dyne/cm^2): up to 90%
- DMSO percentage giving the same level of protection at longer shear exposure ([2]; 10 min of 30 dyne/cm^2): 10%
- most effective DMSO percentage in protecting platelets from activation by constant shear stress and aggregation by chemical agonists ([2]; DMSO range tested 0.95%-60%): 5 % (v/v)
- DMSO concentration with best protective effect ([2]; shear 30-70 dynes/cm^2, FIG. 1A): 1-5%
- tolerance of hyper shear (platelets [3]): able to tolerate much higher levels of sheer
- ristocetin-induced platelet aggregation [4]: no effect
- collagen-induced PRP aggregation ([4]; 0.95% to 10% DMSO): limited effect
- epinephrine-induced PRP aggregation ([4]; 0.95% to 10% DMSO): limited effect
- arachidonic acid-induced aggregation ([4]; 5% DMSO): inhibition
- maximal aggregation (LTA) ([4]; 5% DMSO-pretreated platelets): lower maximal aggregation
- platelet aggregation rate (LTA) ([4]; 5% DMSO-pretreated platelets): slower platelet aggregation rate
- ADP-induced aggregation ([4]; 10% DMSO): inhibition
- agonist-mediated platelet activation ([4]; PRP pre-incubated with varying DMSO, ADP, Col, Epi, Arac. Acid, inhibitory peak at higher DMSO concentrations than for shear, FIG. 1C): reduction of agonist-mediated activation
- filopodia (SEM of platelets) (platelets [5]): significant reduction

Molecule: C/C1=C\[C@H](C)C[C@H](C)OC(=O)C[C@H](c2ccc(O)cc2)NC(=O)[C@@H](Cc2c(Br)[nH]c3ccccc23)N(C)C(=O)[C@H](C)NC(=O)[C@@H](C)C1 [Jasplakinolide]
- shear-mediated platelet activation over time (GFP): less activation over time

Molecule: CC(C)CCC[C@@H](C)[C@H]1CC[C@H]2[C@@H]3CC=C4C[C@@H](O)CC[C@]4(C)[C@H]3CC[C@]12C [cholesterol]
- shear-induced platelet activation (platelets [1]; 20 μM and 200 μM cholesterol, 30 dyn and 70 dyn, compared with 0.1% DMSO, FIG. 4D-E): reduces shear-induced platelet activation

— patent US10478404B2, “Materials, methods and devices for altering cell reactivity” (The Arizona Board of Regents on behalf of The University of …, priority 2014, dated 2019)
